Earlier results on 35 compounds are cited in patent publication US20170003257A1, “WETNESS INDICATOR WITH TWO COLORANTS AND TWO STABILIZERS” (The Procter & Gamble Company, priority 2015, published 2017).

The conditions of series [1]: Table 2 stabilizers; for pKa (1): first pKa; for pKa (2): second pKa; for pKa (3): third pKa.

Read-outs that look alike come from different tables or passages of the source.

As for `Cc1cc(O)c(C(C)C)cc1C1(c2cc(C(C)C)c(O)cc2C)OC(=O)c2ccccc21` [Thymolphthalein], the pKa (commonly the negative logarithm of the acid dissociation constant) (Table 1 colorants) was 9.8. On to `CN(C)c1ccc(C(=C2C=CC(=[N+](C)C)C=C2)c2ccccc2)cc1` [Malachite Green], for which, for the setting “Alkaline pH range”, the pKa is reported as 12.8. Consider `Cc1ccccc1C(=O)O` [o-Toluic acid], for which the “pKa (1)” value in series [1] was 3.9. As to `NC(C(=O)O)c1ccccc1` (stereo not shown) [Phenylglycine], in series [1], the “pKa (1)” value was 1.8 and the “pKa (2)” value was 4.4. Consider `CC[N+](CC)=c1ccc2nc3c(cc(N)c4ccccc43)oc-2c1` [Nile Blue], for which, where the note is “Table 1 colorants”, the pKa was 9.7. With `C[N+](C)(C)CC(=O)O` [Betaine], the “pKa (1)” value in series [1] is reported as 1.83.

Turning to `O=c1[nH]c(=O)c2[nH]c(=O)[nH]c2[nH]1` [Uric acid], the “pKa (1)” value in series [1] was 3.9. Regarding `Oc1ccccc1O` [Catechol], in series [1], the “pKa (1)” value is recorded as 9.4 and the “pKa (2)” value was 12.8. As to `N[C@@H](CO)C(=O)O` [Serine], in series [1], the “pKa (2)” value is reported as 9.0.

`OB(O)O` [Boric acid]: in series [1], the “pKa (1)” value is reported as 9.3, the “pKa (2)” value is given as 12.7 and the “pKa (3)” value is 13.8.

`O=c1ccc2[n+]([O-])c3ccc(O)cc3oc-2c1` [Resazurin]: the pKa (Table 1 colorants) is reported as 5.1. Regarding `NCCc1ccc(O)cc1` [Tyramine], in series [1], the “pKa (1)” value is on record as 9.8 and the “pKa (2)” value was 10.5. Take `O=C1O[C@H]([C@@H](O)CO)C(O)=C1O` [Ascorbic acid]: the “pKa (2)” value in series [1] is reported as 11.8. Consider `Cc1ccc(C(=O)O)cc1` [p-Toluic acid], for which the “pKa (1)” value in series [1] is on record as 4.4. In the case of `CCCCCCCCCCN` [Decylamine], the “pKa (1)” value in series [1] is recorded as 10.6. Take `O=S(O)O` [Sulfurous acid]: the “pKa (2)” value in series [1] was 7.2. As to `Oc1ccccc1O` [Pyrocatechol], in series [1], the “pKa (1)” value is on record as 9.4 and the “pKa (2)” value is 12.8.

As for `CCCCCCN` [Hexylamine], in series [1], the “pKa (1)” value is 10.6.

Turning to `O=C(O)c1ccccn1` [Picolinic acid], in series [1], the “pKa (1)” value is on record as 1.1 and the “pKa (2)” value was 5.2.

With `O=C(O)CN(CCN(CC(=O)O)CC(=O)O)CC(=O)O` [Ethylenediaminetetraacetic acid (EDTA), Ethylenediaminetetraacetic acid], the “pKa (5)” value in series [1] (fifth pKa) was 6.7. In addition, in series [1], the “pKa (1)” value is −0.21, the “pKa (2)” value is recorded as 1.5 and the “pKa (3)” value is 2.2. Moreover, the “pKa (4)” value in series [1] (fourth pKa) was 3.1. Turning to `Oc1ccc(O)cc1` [Hydroquinone], the “pKa (1)” value in series [1] is listed as 10.3. In the case of `O=C(O)CCCCCC(=O)O` [Heptanedioic acid], the “pKa (1)” value in series [1] is 4.7. As for `O=C(O)C(O)CO` (stereo not shown) [Glyceric acid], the “pKa (1)” value in series [1] is given as 3.5.

For `NCCN` [Ethylenediamine], the “pKa (1)” value in series [1] was 6.8. As for `O=C(O)c1ccncc1` [4-Pyridinecarboxylic acid], the “pKa (1)” value in series [1] was 5.0.

For the compound `N=C(N)NCCC[C@H](N)C(=O)O` [Arginine], the “pKa (1)” value in series [1] is recorded as 1.8. For `O=C(O)c1cncc(C(=O)O)c1` [Dinicotinic acid], the “pKa (1)” value in series [1] is recorded as 2.8.

For the compound `CC(=O)CC(=O)O` [Acetoacetic acid], in series [1], the “pKa (1)” value is reported as 3.6.

As for `O=CC(=O)O` [Glyoxylic acid], the “pKa (1)” value in series [1] is 3.2. Consider `CC(=NO)C(C)=NO` [Dimethylglyoxime], for which, in series [1], the “pKa (1)” value was 10.7 and the “pKa (2)” value is 12.0.

With `N[C@@H](Cc1ccccc1)C(=O)O` [Phenylalanine], in series [1], the “pKa (2)” value is reported as 9.3. On to `CCCCCCCN` [Heptylamine], for which the “pKa (1)” value in series [1] was 10.7.

On to `Oc1cccc(O)c1` [Resorcinol], for which, in series [1], the “pKa (1)” value is 9.3 and the “pKa (2)” value was 11.1. Take `NCCCCCCN` [Hexamethylenediamine]: in series [1], the “pKa (1)” value is recorded as 11.9 and the “pKa (2)” value is given as 10.8. Take `CC(C)CCC(=O)O` [4-Methylpentanoic acid]: the “pKa (1)” value in series [1] is recorded as 4.8.
